Source: patent US20220162561A1, “COMPOSITION FOR PROMOTING SECRETION OF EXTRACELLULAR VESICLES” (priority 2019, published 2022)

Tests used:
Format in all cases: cell-based
[1] = system: mesenchymal stem cells derived from human bone marrow; assay: Test Example 8: cytotoxicity, LDH activity in culture solution
Experimental: (§1) Mesenchymal stem cells derived from human bone marrow or mesenchymal stem cells derived from human umbilical cord matrix (#C-12974, #C-12971 manufactured by Takara Bio Inc.) were suspended in mesenchymal stem cell growth medium 2 (C-28009 manufactured by Takara Bio Inc.) so as to be 8×10^4 cells/1.8 mL, and seeded on a 6-well cell culture treatment plate (3516 manufactured by Corning Inc.). To the seeded mesenchymal stem cells was added each 200 μL of the compounds of Examples 1 to 8 diluted to 10-fold concentration with the mesenchymal stem cell growth medium 2, and after culturing for 24 hours, the culture solution was recovered. The activity of lactate dehydrogenase (LDH) contained in the recovered culture solution was measured by using LDH Cytotoxicity Detection Kit (MK401 manufactured by Takara Bio Inc.). To a freeze-dried product of Solution A was added 1 mL of purified water to completely dissolve therein, then, 250 μL of Solution A and 11.25 mL of Solution B were mixed to prepare Solution C. To 100 μL of the recovered culture solution was added 100 μL of Solution C, and the mixture was reacted at room temperature for 30 minutes. Absorbance at 490 nm was measured using Enspire (manufactured by PerkinElmer). Based on the obtained measured values, a relative value when the compound untreated group (control) was set to 1 was calculated.

[2] = system: mesenchymal stem cells derived from human umbilical cord matrix; assay: as above
Experimental: as §1

[3] = system: mesenchymal stem cells derived from human adipose tissue; assay: Test Example 5: cell proliferation activity (cell viability), CellTiter-Glo; parameters: scale not given here
Experimental: Mesenchymal stem cells derived from the human adipose tissue (#C-12977 manufactured by Takara Bio Inc.) were suspended in mesenchymal stem cell growth medium 2 (C-28009 manufactured by Takara Bio Inc.) so as to be 2×10^3 cells/90 μL, and seeded on a 96-well cell culture treatment plate (3585 manufactured by Corning Inc.). To the seeded mesenchymal stem cells derived from human adipose tissue was added 10 μL of the compound solution of each of Examples 1 to 8 diluted to 10-fold concentration with the mesenchymal stem cell growth medium 2, or mesenchymal stem cell growth medium alone (control), and the cells were cultured for 24 hours. Subsequently, the number of living cells was measured as follows using CellTiter-Glo (Registered Trademark) Luminescent Cell Viability Assay (G7570 manufactured by Promega). 100 μL well of a solution in which CellTiter-Glo (trademark) Substrate was dissolved in CellTiter-Glo (trademark) Buffer was added to each well of the above-mentioned 96-well cell culture treatment plate, and then, 100 μL thereof was transferred to 96-well cell culture treatment white plate (356701 manufactured by Corning Inc.), and the luminescence was measured with Enspire (manufactured by PerkinElmer).

[4] = system: human bone marrow-derived mesenchymal stem cells; assay: Test Example 7: promotion of secretion of extracellular vesicles, PS Capture exosome ELISA (anti-CD63); settings: 24 hours, compound untreated group (control) set to 1
Experimental: (§2) Human bone marrow-derived mesenchymal stem cells or human umbilical cord matrix-derived mesenchymal stem cells (#C-12974, #C-12971 manufactured by Takara Bio Inc.) were suspended in mesenchymal stem cell growth medium 2 (C-28009 manufactured by Takara Bio Inc.) so as to be 8×10^4 cells/1.8 mL, and seeded on a 6-well cell culture treatment plate (3516 manufactured by Corning Inc.). To the seeded mesenchymal stem cells was added each 200 μL of the compounds of Examples 1 to 8 diluted to 10-fold concentration with the mesenchymal stem cell growth medium 2, and after culturing for 24 hours, the culture solution was recovered. Subsequently, the recovered culture solution was centrifuged under 20,000×g at 4° C. for 60 minutes to prepare a culture solution from which cell fragments and Large Extracellular Vesicles were removed. For the detection of extracellular vesicles, PS Capture (trademark) exosome ELISA kit (anti-mouse IgG POD) (#297-79201 manufactured by FUJIFILM Wako Pure Chemical Corporation) was used.
(§3) To Reaction/Washing Buffer (1×) prepared by diluting Reaction/Washing Buffer (10×) 10-fold with purified water was added 1/100 amount of Exosome Binding Enhancer (100×) to prepare a Reaction/Washing Buffer (1×). Each culture solution was diluted 5-fold with the Reaction/Washing Buffer (1×). After washing Exosome Capture 96-well plate with 300 μL of the Reaction/Washing Buffer (1×) three times, 5-fold-diluted each extracellular vesicle solution, or the mesenchymal stem cell growth medium 2 in which no cell was cultured (negative control) was added to each well, and the mixture was reacted at room temperature for 2 hours while shaking with a microplate shaker. After completion of the reaction, the reaction mixture was discarded, and after washing each well with 300 μL of the Reaction/Washing Buffer (1×) three times, 100 μL of Primary Antibody Anti-CD63 (×100) diluted to 1,000-fold with the Reaction/Washing Buffer (1×) was added thereto, and the mixture were reacted at room temperature for 1 hour while shaking with a microplate shaker. After completion of the reaction, the reaction mixture was discarded, and after washing each well with 300 μL of the Reaction/Washing Buffer (1×) three times, 100 μL of Secondary Antibody HRP-conjugated Anti-mouse IgG (100×) diluted to 1,000-fold with the Reaction/Washing Buffer (1×) was added thereto, and the mixture were reacted at room temperature for 1 hour while shaking with a microplate shaker. After completion of the reaction, the reaction mixture was discarded, and after washing each well with 300 μL of the Reaction/Washing Buffer (1×) five times, 100 μL of TMB Solution was added, and after shaking with a microplate shaker for 1 minutes, the mixture was reacted at room temperature for 30 minutes. After completion of the reaction, 100 μL of Stop Solution was added thereto, and after shaking with a microplate shaker for 5 seconds, the absorbance at 450 nm and 620 nm was measured with Enspire (manufactured by PerkinElmer). Based on the obtained measured values, a value subtracting the absorbance at 620 nm from the absorbance at 450 nm was calculated and a relative value when the compound untreated group (control) was set to 1 was calculated.

[5] = system: human umbilical cord matrix-derived mesenchymal stem cells; assay: as above; settings: 24 hours, compound untreated group (control) set to 1
Experimental: as §2, §3

[6] = 2 μM, 24 hours, LDH, 490 nm, control set to 1
[7] = Table 6, 2 μM, 24 hours, number of living cells, CellTiter-Glo
[8] = 20 nM, 24 hours, LDH, 490 nm, control set to 1
[9] = Table 6, 50 nM, 24 hours, number of living cells, CellTiter-Glo

Structure (SMILES) | Relative value of absorbance [1, 6] | Relative value of absorbance [2, 6] | Luminescence [3, 7] | Relative value of difference of absorbance ([4]; 2 μM) | Relative value of difference of absorbance ([5]; 2 μM) | Relative value of absorbance [1, 8] | Relative value of absorbance [2, 8] | Relative value of difference of absorbance ([4]; 20 nM) | Relative value of difference of absorbance ([5]; 20 nM) | further results
CC(=O)O.Cc1cc2c(C(C)C)c(O)c(O)c(C=O)c2c(O)c1-c1c(C)cc2c(C(C)C)c(O)c(O)c(C=O)c2c1O (racemic) [Example 1, (±)-Gossypol Acetate] | 0.93 | 0.78 | 0.96 | 2.46 | 1.97 |  |  |  |  | Luminescence ([3]; Table 5, 2 μM, 24 hours, number of living cells, CellTiter-Glo): 0.87
CC(=O)O.Cc1cc2c(C(C)C)c(O)c(O)c(C=O)c2c(O)c1-c1c(C)cc2c(C(C)C)c(O)c(O)c(C=O)c2c1O [Example 2, (S)-Gossypol Acetate] | 0.99 | 1.04 | 1.00 | 2.14 | 1.57 |  |  |  |  | 
Cc1cc2c(C(C)C)c(O)c(O)cc2c(O)c1-c1c(C)cc2c(C(C)C)c(O)c(O)cc2c1O [Example 3, (+)-Apogossypol] |  |  |  | 1.53 | 1.31 |  |  |  |  | Relative value of absorbance ([1]; human, 24 h, 2 μM): 0.99; Relative value of absorbance ([2]; human, 24 h, 2 μM): 1.06; Luminescence ([3]; human, 24 h, 2 μM): 0.82
Cc1cc2c(C(C)C)c(O)c(O)c(C=O)c2c(O)c1-c1c(C)cc2c(C(C)C)c(O)c(O)c(C=O)c2c1O [Example 4, (R)-(−)-Gossypol] | 0.97 | 0.88 |  | 2.39 | 1.95 |  |  |  |  | Luminescence ([3]; human, 24 h, 2 μM): 0.85
COC1=CC(c2cc3ccccc3[nH]2)=N/C1=C\c1[nH]c(C)cc1C.CS(=O)(=O)O [Example 5, Obatoclax Mesylate] |  |  |  |  |  | 0.96 | 0.94 | 1.81 | 1.65 | Luminescence ([3]; Table 5, 50 nM, 24 hours, number of living cells, CellTiter-Glo): 0.75
CCCCCC1=C/C(=C\c2[nH]c(-c3ccc[nH]3)cc2OC)N=C1C.Cl [Example 6, Prodigiosin Hydrochloride] |  |  |  |  |  | 0.93 | 0.97 | 1.31 | 1.48 | Luminescence [3, 9]: 0.76
CCCCCCCCCCCc1ccc(/C=C2\N=C(c3ccc[nH]3)C=C2OC)[nH]1.Cl [Example 7, Undecylprodigiosin Hydrochloride] |  |  |  |  |  | 0.99 | 1.03 | 2.88 | 1.74 | Luminescence [3, 9]: 0.74
Cc1cc2c(C(=O)NC[C@H](C)c3ccccc3)c(O)c(O)cc2c(O)c1-c1c(C)cc2c(C(=O)NC[C@H](C)c3ccccc3)c(O)c(O)cc2c1O [Example 8, Sabutoclax] | 1.01 | 1.15 | 0.95 | 1.39 | 1.44 |  |  |  |  | 
